Source: patent publication US12582697B2, “Antisecretory factor for use in treatment and/or prevention of acute respiratory failure” (LANTMÄNNEN MEDICAL AB, priority 2018, dated 2026)
Where a SMILES comes first, the peptide text is derived from it.

Tested on: adult pigs with experimentally induced ARDS
Assay: ARDS model: adverse side effects on cardiovascular parameters
Format: in vivo, pig
Settings: iv infusion 2 mg/kg, anaesthetized pigs
Procedure: After ethical approval, 3 months old pigs (body weight 30-35 kg), in all 12, were purchased from a local farm and 2 pigs on 6 occasions brought to the laboratory in the morning on the day for the experiment. […] Upon arrival, the pigs were sedated and thereafter kept fully anaesthetized during the entire experiment until termination late the same day. Tracheostomy was performed and mechanical ventilation performed with a ventilator. This setup is visualized in FIG. 1. Tubes positioned in arteries, veins and via a vein also in the right heart. Equipment was implanted to enable the use of PiCCO instrument (Pulse index, Continuous Cardiac Output=PiCCO) in order to enable exact determination of the total blood volume in the lungs, extra-vascular lung water (EVLW) and cardiac function parameters. Blood pressure transducers were inserted in the pulmonary artery and in a central artery. Arterial blood gasses and additional blood parameters were checked at regular intervals. Oximetry was used to determine hemoglobin oxygen saturation in arterial blood. The core body temperature was kept automatically at desired normal level. EKG was recorded. […]
Treatment with the peptide AF-16 or the vehicle started after the induction of the lung injury (i.e., after the injurious ventilation). […] The PiCCO values were determined once every hour for up to 4 hours after the infusion of the test substance. […]

CC(C)C[C@H](NC(=O)CNC(=O)[C@@H](NC(=O)[C@H](CC(N)=O)NC(=O)[C@H](CC(N)=O)NC(=O)[C@H](CCC(=O)O)NC(=O)[C@@H]1CCCN1C(=O)[C@H](CC(N)=O)NC(=O)[C@H](CO)NC(=O)[C@H](CCCNC(=N)N)NC(=O)[C@@H](NC(=O)[C@H](CCCCN)NC(=O)[C@H](CO)NC(=O)[C@H](Cc1c[nH]cn1)NC(=O)[C@H](CS)NC(=O)[C@@H](N)C(C)C)[C@@H](C)O)C(C)C)C(=O)O [AF-16, VCHSKTRSNPENNVGL] (H-VCHSKTRSNPENNVGL-OH; N-terminus and C-terminus assumed)
adverse side effects on cardiovascular parameters, including blood pressure and heart rates: no adverse side effects could be demonstrated
